From patent US11123350B2, “Metal delivery agents and therapeutic uses of the same” (THE UNIVERSITY OF MELBOURNE, priority 2006, dated 2021)

What was measured:
A30P cells = assay: Dopamine induced cell death, A30P cells (MTT); assay type: cell-based
G93A-SOD1 mice = settings: other reported pharmacological treatments (literature); cited from earlier work

Compound | % recovery (A30P cells; Dopamine 500 μm + complex 0.01 μM) | % recovery (A30P cells; Dopamine 500 μm + complex 0.1 μM) | Increased Life Span (G93A-SOD1 mice)
CN=C([S-])N/N=C(C)/C(C)=N/NC([S-])=NC.[64Cu+2] [Complex A2, copper(II)diacetylbis(N(4)-methylthiosemicarbazone)] | 105.90% | 97.77% | –
O=C1NC(=O)C(c2ccc(-c3ccccc3)cc2)(N2CCN(c3ccc([N+](=O)[O-])cc3)CC2)C(=O)N1 [Ro 28-2653] | – | – | 13 days
NCC1(CC(=O)O)CCCCC1 [Gabapentin] | – | – | No effect
CC(=O)Oc1ccccc1C(=O)O [Lysine Acetyl salicylate] | – | – | No effect
